From paper PMC10672269, “Evaluation of Carbonic Anhydrase, Acetylcholinesterase, Butyrylcholinesterase, and α-Glycosidase Inhibition Effects and Antioxidant Activity of Baicalin Hydrate” (Life, 2023)

Columns and labels:
α-glycosidase = assay: α-Glycosidase inhibition (p-NPG substrate); format: biochemical, Saccharomyces cerevisiae
Method: The inhibition effects of baicalin hydrate on α-glycosidase (from Saccharomyces cerevisiae) were assessed according to the procedure outlined by Tao et al.. p-Nitrophenyl-D-glucopyranoside (p-NPG) was used as a substrate for α-glycosidase. Briefly, 75 μL phosphate buffer (pH 7.4) was mixed with 5 μL of the sample and 20 μL α-glycosidase enzyme solution in a phosphate buffer (0.15 U/mL, pH 7.4). After preincubation, 50 μL of p-nitrophenyl-D-glycopyranoside (p-NPG) in a phosphate buffer (5 mM, pH 7.4) was transferred, and the solution was incubated at 37 °C. The absorbance of the samples was measured at 405 nm. The amount of enzyme that catalyzed […] of substrate per minute (pH 7.4) was one α-glycosidase unit.
(§1) The IC50 values were determined using plots of activity (%) versus baicalin hydrate. Ki values and other inhibition factors were determined using Lineweaver–Burk graphs.

[1] = Cu2+ reducing ability (cupric ions reducing); conditions: at 30 μg/mL
Method: The technique of Apak et al. was utilized to assess the cupric ions (Cu^2+) reducing capacity of baicalin hydrate. After carrying out the required experimental procedures, the absorbances were detected at 450 nm using a spectrophotometer (Shimadzu, UV-1280, Kyoto, Japan). To do so, 0.2 mL CuCl2 solution (10 mM), 200 µL neocuproine solution (7.5 mM), and 200 µL CH3COONa buffer solution (1.0 M) were added to a test tube. The solution was mixed with different concentrations of baicalin hydrate (10–30 μg/mL). The total volume then reduced to 1.5 mL by adding distilled water and stored at room temperature. After 30 min incubation, the absorbances of the samples were measured at 450 nm. The increased absorbance of the reaction reflects increased reduction capacity.

DMPD radical scavenging = assay: DMPD radical scavenging
Method: Baicalin hydrate was evaluated for its capacity to remove DMPD^•+ using the Fogliano technique. For this purpose, 0.5 mL of FeCl3 (50 mM) and 1.5 mL of DMPD solution were added to the buffer solution (pH 5.3, 0.1 M). Then, this mixture was added to 1 mL of different concentrations (10–30 μg/mL) of baicalin hydrate. Then, the total volume was adjusted to 4 mL using deionized water. Finally, 1 mL of DMPD radicals were added, and their absorbances were recorded at 505 nm.
as §1

DPPH radical scavenging = assay: DPPH radical scavenging
Method: The Blois technique was used to test the DPPH^• scavenging capacity of baicalin hydrate. Briefly, 0.25 mL of different concentrations of baicalin hydrate in ethanol (10–30 μg/mL) and 0.25 mL of DPPH radical solution (0.3 mM) in ethanol were combined with 1 mL ethanol in test tubes. The mixture was then incubated at 37 °C for 30 min. The DPPH radical scavenging activities of baicalin hydrate were measured at 517 nm.
as §1

ABTS radical scavenging = assay: ABTS radical scavenging
Method: ABTS^•+ scavenging capacity of baicalin hydrate was measured according to a different work and was detected at 734 nm. ABTS^•+ was produced by the reaction of 2 mM ABTS in water with 2.45 mM potassium persulfate (K2S2O8), incubated in the dark at room temperature for five hours. Before usage, the ABTS^•+ solution was diluted to obtain an absorbance of 0.750 ± 0.025 at 734 nm with phosphate buffer (0.1 M, pH 7.4). Then, 1 mL of ABTS^•+ solution was added to 3 mL of baicalin hydrate in ethanol at different concentrations (10–30 µg/mL).
as §1

[2] = Fe3+ reducing ability (potassium ferricyanide reduction); conditions: at 30 μg/mL
Method: According to prior investigation, baicalin hydrate’s ability to reduce Fe^3+ was achieved. Also, according to previous works, the Fe^3+-reducing effect of baicalin hydrate was tested. Briefly, 0.75 mL of deionized water and different doses of baicalin hydrate (10–30 μg/mL) were combined with 1.25 mL sodium phosphate buffer (pH 6.6, 0.2 M) and 1.25 mL of K3[Fe(CN)6] (1%). After 30 min incubation at 30 °C, the reaction medium was acidified with 1 mL trichloroacetic acid (10%, TCA) and re-incubated in the dark for 30 min. Finally, 0.5 mL of FeCl3 (0.1%) was transferred to the solution. The absorbance values of baicalin hydrate and references were recorded at 700 nm. The increased absorbance of the reaction mixture reflects an increasing reduction ability.

[3] = DPPH tests in a different investigation; cited from earlier work
hCA II isoenzyme = molecular target: T1, hCA II isoenzyme (Homo sapiens, UniProt P00918); assay: Human carbonic anhydrase II inhibition (esterase activity); format: biochemical
T1 construct: hCA II isoenzyme was purified from fresh human erythrocytes; from tissue
Method: hCA II isoenzyme was purified from fresh human erythrocytes. The erythrocytes were spun at 10,000× g for 30 min. The serum was then separated, and the pH was adjusted to 8.7 using solid Tris. Sepharose-4B-L-Tirozyne sulfanilamide affinity column chromatography was used to purify the CA II isoenzyme. […] Sodium acetate/NaClO4 (0.5 M, pH 5.6, 25 °C) was then used to elute the hCA II isozyme. The Bradford technique was used to measure the protein quantity throughout the purification process. Bovine serum albumin was employed as a reference protein. SDS-PAGE was used to monitor the purity of the hCA II isoform. Esterase activity was performed throughout hCA II’s purification and inhibition processes.
as §1

[4] = molecular target: T2, butyrylcholinesterase (BChE) (Equus caballus, UniProt P81908); assay: biochemical; design: species or system equine
T2 construct: BChE was purified from equine serum; from tissue; host or cells: equine serum
T2 sequence (P81908 whole entry): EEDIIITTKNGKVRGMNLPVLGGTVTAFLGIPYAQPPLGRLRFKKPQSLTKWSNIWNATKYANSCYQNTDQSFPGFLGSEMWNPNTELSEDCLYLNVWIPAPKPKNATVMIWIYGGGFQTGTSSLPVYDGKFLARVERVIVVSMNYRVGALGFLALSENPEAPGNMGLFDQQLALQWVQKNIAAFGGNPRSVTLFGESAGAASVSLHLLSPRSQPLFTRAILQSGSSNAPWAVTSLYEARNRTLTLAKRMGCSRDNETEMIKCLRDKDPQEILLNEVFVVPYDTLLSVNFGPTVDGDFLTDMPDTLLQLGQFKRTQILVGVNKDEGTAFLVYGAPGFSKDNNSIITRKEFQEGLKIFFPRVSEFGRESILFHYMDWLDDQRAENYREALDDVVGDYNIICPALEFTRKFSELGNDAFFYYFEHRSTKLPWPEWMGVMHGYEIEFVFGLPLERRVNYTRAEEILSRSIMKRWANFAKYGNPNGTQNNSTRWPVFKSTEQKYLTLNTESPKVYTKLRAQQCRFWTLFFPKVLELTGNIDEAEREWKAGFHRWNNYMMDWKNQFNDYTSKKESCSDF

[5] = molecular target: T3, acetylcholinesterase (AChE) (Electrophorus electricus, UniProt O42275); assay: Acetylcholinesterase inhibition (Ellman); format: biochemical, electric eel (Electrophorus electricus)
T3 construct: AChE was obtained from electric eel (Electrophorus electricus); from tissue
T3 sequence (O42275 24-633): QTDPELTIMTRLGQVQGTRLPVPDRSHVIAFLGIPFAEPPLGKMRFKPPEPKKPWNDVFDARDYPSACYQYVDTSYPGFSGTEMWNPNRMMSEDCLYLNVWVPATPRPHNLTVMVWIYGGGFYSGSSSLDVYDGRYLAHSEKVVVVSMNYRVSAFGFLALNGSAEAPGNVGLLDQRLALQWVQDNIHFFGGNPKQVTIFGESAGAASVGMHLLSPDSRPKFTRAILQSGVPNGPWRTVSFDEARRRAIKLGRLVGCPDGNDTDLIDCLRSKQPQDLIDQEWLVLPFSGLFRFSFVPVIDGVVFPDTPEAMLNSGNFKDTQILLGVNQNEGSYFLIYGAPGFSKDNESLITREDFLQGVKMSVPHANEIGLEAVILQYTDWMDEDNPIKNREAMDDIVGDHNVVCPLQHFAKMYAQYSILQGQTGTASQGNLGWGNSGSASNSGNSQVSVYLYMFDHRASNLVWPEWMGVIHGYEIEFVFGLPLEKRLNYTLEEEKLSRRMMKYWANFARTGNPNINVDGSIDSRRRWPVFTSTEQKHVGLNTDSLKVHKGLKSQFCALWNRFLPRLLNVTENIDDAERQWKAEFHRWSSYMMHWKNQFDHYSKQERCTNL

With `O=C(O)[C@H]1O[C@@H](Oc2cc3oc(-c4ccccc4)cc(=O)c3c(O)c2O)[C@H](O)[C@@H](O)[C@@H]1O` [Baicalin hydrate, baicalin hydrate] the IC50 (α-glycosidase) was 0.0246 µM, the Ki (α-glycosidase; n: 3, Lineweaver–Burk, read-out: Ki α-Gly) was 0.027 ± 0.00991 µM and the “Cu^2+ reducing, absorbance λ (450 nm)” value [1] was 0.344. The “Cu^2+ reducing, absorbance λ (450 nm)” value ([1]; listed as baicalin hydrate) was 0.344 ± 0.033, the “DMPD•+ scavenging IC50” value (DMPD radical scavenging) was 90.91 mg/L and the “DPPH• scavenging IC50” value (DPPH radical scavenging) was 13.40 mg/L. For the same compound, the “ABTS•+ scavenging IC50” value (ABTS radical scavenging) was 38.37 mg/L, the “Fe^3+ reducing, absorbance λ (700 nm)” value [2] was 1.249 and the “Fe^3+ reducing, absorbance λ (700 nm)” value ([2]; listed as baicalin hydrate) was 1.249 ± 0.014. For the same compound, the “median inhibitory concentration (IC50)” value [3] was 17.0 mg/L, the IC50 (hCA II isoenzyme) was 0.0311 µM and the Ki (hCA II isoenzyme) was 0.0193 ± 0.00179 µM. The IC50 [4] was 0.0123 µM, the Ki ([4]; n: 3, Lineweaver–Burk) was 0.0035 ± 0.00068 µM and the IC50 [5] was 0.0147 µM. The Ki [5] was 0.01 ± 0.00286 µM and the “Selectivity index (Ki for AChE/Ki BChE)” value [5] was 2.86.
